{"source": "PubChem BioAssay AID328", "about": "(DTP/NCI, 2004)", "tested_on": "BDF1 mice, P388 leukemia ip, median survival T/C", "experiment": "NCI In Vivo Anticancer Drug Screen. Data for tumor model P388 Leukemia (intraperitoneal) in B6D2F1 (BDF1) mice", "conditions": "endpoint: median survival time, higher = longer survival", "in_short": "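Survival ratio, drug arm over vehicle arm, in mice with a transplanted tumour.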", "key": {"[1]": {"conditions": "dose: 50.0 mg/kg/injection, schedule: Q01DX009 (ip), vehicle: saline with Tween-80"}, "[2]": {"conditions": "dose: 100.0 mg/kg/injection, schedule: Q01DX009 (ip), vehicle: saline with Tween-80"}, "[3]": {"conditions": "dose: 200.0 mg/kg/injection, schedule: Q01DX009 (ip), vehicle: saline with Tween-80"}, "[4]": {"conditions": "dose: 12.5 mg/kg/injection, schedule: Q01DX009 (ip), vehicle: saline with Tween-80"}, "[5]": {"conditions": "dose: 25.0 mg/kg/injection, schedule: Q01DX009 (ip), vehicle: saline with Tween-80"}}, "note": "Several values for one entry are separate records, joined by “and”; a condition that tells them apart may be missing. Equal entries are not always repeated. Toxic doses and inconclusive results are not listed.", "data": [{"smiles": "[N-]=[N+]=NCC(=O)NCc1cnccn1", "values": [{"measurement": "T/C", "setting": "dose: 12.5 mg/kg/injection, schedule: Q01DX009 (ip), vehicle: saline", "result": "116 % of control"}, {"measurement": "T/C", "setting": "dose: 25.0 mg/kg/injection, schedule: Q01DX009 (ip), vehicle: saline", "result": "116 % of control"}, {"measurement": "T/C", "setting": "dose: 100.0 mg/kg/injection, schedule: Q01DX009 (ip), vehicle: saline", "result": "106 % of control"}, {"measurement": "T/C", "setting": "dose: 100.0 mg/kg/injection, schedule: Q04DX003 (ip), vehicle: saline", "result": "109 % of control"}, {"measurement": "T/C", "setting": "dose: 200.0 mg/kg/injection, schedule: Q01DX009 (ip), vehicle: saline", "result": "116 % of control"}, {"measurement": "T/C", "setting": "dose: 200.0 mg/kg/injection, schedule: Q04DX003 (ip), vehicle: saline", "result": "108 % of control"}, {"measurement": "T/C", "setting": "dose: 400.0 mg/kg/injection, schedule: Q01DX009 (ip), vehicle: saline", "result": "119 % of control"}, {"measurement": "T/C", "setting": "dose: 400.0 mg/kg/injection, schedule: Q04DX003 (ip), vehicle: saline", "result": "109 % of control"}]}, {"smiles": "CC(C)(C)CC(C)(C)c1ccc(OCCOS(=O)(=O)c2cccc([N+](=O)[O-])c2)cc1", "values": [{"measurement": "T/C", "setting": "[1]", "result": "109 % of control"}, {"measurement": "T/C", "setting": "[2]", "result": "95 % of control"}, {"measurement": "T/C", "setting": "[3]", "result": "118 % of control"}]}, {"smiles": "CC(C)c1ccc2c(c1)CC[C@H]1[C@](C)(CN=C(N)CCl)CCC[C@]21C", "values": [{"measurement": "T/C", "setting": "dose: 1.56 mg/kg/injection, schedule: Q01DX009 (ip), vehicle: Klucel (hydroxypropylcellulose) (HPC)", "result": "110 % of control"}, {"measurement": "T/C", "setting": "dose: 3.13 mg/kg/injection, schedule: Q01DX009 (ip), vehicle: Klucel (hydroxypropylcellulose) (HPC)", "result": "112 % of control"}, {"measurement": "T/C", "setting": "dose: 6.25 mg/kg/injection, schedule: Q01DX009 (ip), vehicle: Klucel (hydroxypropylcellulose) (HPC)", "result": "114 % of control"}]}, {"smiles": "Cc1ccn2c(CCc3nnc4cc(C)ccn34)nnc2c1", "values": [{"measurement": "T/C", "setting": "[1]", "result": "90 % of control"}, {"measurement": "T/C", "setting": "[2]", "result": "93 % of control"}, {"measurement": "T/C", "setting": "[3]", "result": "106 % of control"}]}, {"smiles": "CCCCCCCCCCCCCC(=O)[O][Sn]([CH2]CCC)([CH2]CCC)[O]C(=O)CCCCCCCCCCCCC", "values": [{"measurement": "T/C", "setting": "dose: 0.78 mg/kg/injection, schedule: Q04DX003 (ip), vehicle: other", "result": "104 % of control"}, {"measurement": "T/C", "setting": "dose: 1.56 mg/kg/injection, schedule: Q04DX003 (ip), vehicle: other", "result": "109 % of control"}, {"measurement": "T/C", "setting": "dose: 3.13 mg/kg/injection, schedule: Q04DX003 (ip), vehicle: other", "result": "113 % of control"}]}, {"smiles": "Cn1cc(/C=C/C(N)=O)c2nccnc21", "values": [{"measurement": "T/C", "setting": "dose: 1.56 mg/kg/injection, schedule: Q01DX009 (ip), vehicle: water", "result": "114 % of control"}, {"measurement": "T/C", "setting": "dose: 3.12 mg/kg/injection, schedule: Q01DX009 (ip), vehicle: water", "result": "100 % of control"}, {"measurement": "T/C", "setting": "dose: 3.12 mg/kg/injection, schedule: Q04DX003 (ip), vehicle: water", "result": "115 % of control"}, {"measurement": "T/C", "setting": "dose: 6.25 mg/kg/injection, schedule: Q01DX009 (ip), vehicle: water", "result": "95 % of control"}, {"measurement": "T/C", "setting": "dose: 6.25 mg/kg/injection, schedule: Q04DX003 (ip), vehicle: water", "result": "106 % of control"}, {"measurement": "T/C", "setting": "dose: 12.5 mg/kg/injection, schedule: Q01DX009 (ip), vehicle: water", "result": "96 % of control"}, {"measurement": "T/C", "setting": "dose: 12.5 mg/kg/injection, schedule: Q04DX003 (ip), vehicle: water", "result": "98 % of control"}, {"measurement": "T/C", "setting": "dose: 25.0 mg/kg/injection, schedule: Q01DX009 (ip), vehicle: water", "result": "100 % of control and 102 % of control"}, {"measurement": "T/C", "setting": "dose: 25.0 mg/kg/injection, schedule: Q04DX003 (ip), vehicle: water", "result": "98 % of control"}, {"measurement": "T/C", "setting": "dose: 50.0 mg/kg/injection, schedule: Q01DX009 (ip), vehicle: water", "result": "86 % of control"}, {"measurement": "T/C", "setting": "dose: 50.0 mg/kg/injection, schedule: Q04DX003 (ip), vehicle: water", "result": "102 % of control"}]}, {"smiles": "CCn1cnc(-c2ccccc2)c1-c1ccccc1", "values": [{"measurement": "T/C", "setting": "[4]", "result": "100 % of control"}, {"measurement": "T/C", "setting": "[5]", "result": "104 % of control"}, {"measurement": "T/C", "setting": "[1]", "result": "100 % of control"}]}, {"smiles": "CC1(C(Cl)(Cl)Cl)C=CC(=O)C=C1", "values": [{"measurement": "T/C", "setting": "dose: 6.25 mg/kg/injection, schedule: Q01DX009 (ip), vehicle: saline with Tween-80", "result": "110 % of control"}, {"measurement": "T/C", "setting": "[4]", "result": "115 % of control"}, {"measurement": "T/C", "setting": "[5]", "result": "98 % of control"}, {"measurement": "T/C", "setting": "[1]", "result": "107 % of control"}]}, {"smiles": "NC(=S)N/N=C\\c1nccc2ccc(N)cc12", "values": [{"measurement": "T/C", "setting": "[1]", "result": "157 % of control"}]}, {"smiles": "CS(=O)(=O)N(CC(=O)O)Cc1ccc(Cl)c(Cl)c1", "values": [{"measurement": "T/C", "setting": "dose: 25.0 mg/kg/injection, schedule: Q04DX003 (ip), vehicle: other", "result": "102 % of control"}, {"measurement": "T/C", "setting": "dose: 50.0 mg/kg/injection, schedule: Q04DX003 (ip), vehicle: other", "result": "102 % of control"}, {"measurement": "T/C", "setting": "dose: 100.0 mg/kg/injection, schedule: Q04DX003 (ip), vehicle: other", "result": "93 % of control"}, {"measurement": "T/C", "setting": "dose: 200.0 mg/kg/injection, schedule: Q04DX003 (ip), vehicle: other", "result": "106 % of control and 107 % of control"}, {"measurement": "T/C", "setting": "dose: 300.0 mg/kg/injection, schedule: Q04DX003 (ip), vehicle: other", "result": "95 % of control"}]}, {"smiles": "O=C(O)/C(=C/c1ccc(Cl)cc1)c1ccccc1", "values": [{"measurement": "T/C", "setting": "[2]", "result": "91 % of control"}, {"measurement": "T/C", "setting": "[3]", "result": "94 % of control"}]}, {"smiles": "CCCCC/C(C)=N\\Nc1ccccn1", "values": [{"measurement": "T/C", "setting": "dose: 12.5 mg/kg/injection, schedule: Q01DX009 (ip), vehicle: Klucel (hydroxypropylcellulose) (HPC)", "result": "100 % of control"}, {"measurement": "T/C", "setting": "dose: 25.0 mg/kg/injection, schedule: Q01DX009 (ip), vehicle: Klucel (hydroxypropylcellulose) (HPC)", "result": "113 % of control"}, {"measurement": "T/C", "setting": "dose: 50.0 mg/kg/injection, schedule: Q01DX009 (ip), vehicle: Klucel (hydroxypropylcellulose) (HPC)", "result": "104 % of control and 113 % of control"}, {"measurement": "T/C", "setting": "dose: 100.0 mg/kg/injection, schedule: Q01DX009 (ip), vehicle: Klucel (hydroxypropylcellulose) (HPC)", "result": "118 % of control"}]}, {"smiles": "C=C(C)COC(N)=O", "values": [{"measurement": "T/C", "setting": "[2]", "result": "108 % of control"}, {"measurement": "T/C", "setting": "[3]", "result": "104 % of control"}, {"measurement": "T/C", "setting": "dose: 400.0 mg/kg/injection, schedule: Q01DX009 (ip), vehicle: saline with Tween-80", "result": "87 % of control"}]}]}
